Test results published in US20190212344A1, “BIOMARKERS FOR USE IN DETERMINING RESPONSE TO TREATMENT OF NEURODEGENERATION DISEASE” (The Board of Trustees of the Leland Stanford Junior …, priority 2016, published 2019).
Residues, ends and D or L forms follow the SMILES beside them.

System: R6/2 mice
Test: Survival of R6/2 and WT mice during P110 treatment
Type: in vivo, mouse
Details: 10 P110-treated WT mice, intermittent treatment over 8 weeks
Procedure: All the experiments were in accordance with protocols approved by the Institutional Animal Care and Use Committee of Stanford University and were performed based on the National Institutes of Health Guide for the Care and Use of Laboratory Animals. Hemizygous R6/2 HD mice and their wild-type littermates (WT) were purchased from Jackson Laboratories and shipped to us at 5 weeks of age. The animals used in the P110 treatment study were implanted with a 28-day osmotic pump (Alzet, Cupertino Calif.) containing TAT47-57 carrier control peptide or P110-TAT47-57 (P110 peptide), which delivered to the mice at a rate of 3 mg/Kg/day, as described before. The first pump was implanted at 5 weeks of age and replaced once, after 4 weeks. For the intermittent treatment study, TAT or P110 were delivered as above, using a 1-week pump. After 3 weeks with no treatment, a new pump was implanted for another week of treatment, and mice were sacrificed three weeks later, at the age of 13 weeks.
The overall survival during the study period was recorded and the remaining mice were sacrificed when they reached 13 weeks. […]
The results are presented as mean±SE. Statistical analysis was assessed by unpaired Student's t test and 1-way ANOVA using GraphPad Prism (GraphPad Software, Inc, La Jolla, Calif.). […]

Structure (SMILES): CC(C)C[C@H](NC(=O)[C@H](CC(=O)O)NC(=O)CNC(=O)CNC(=O)[C@H](CCCNC(=N)N)NC(=O)[C@H](CCCNC(=N)N)NC(=O)[C@H](CCCNC(=N)N)NC(=O)[C@H](CCC(N)=O)NC(=O)[C@H](CCCNC(=N)N)NC(=O)[C@H](CCCNC(=N)N)NC(=O)[C@H](CCCCN)NC(=O)[C@H](CCCCN)NC(=O)[C@H](CCCNC(=N)N)NC(=O)CNC(=O)[C@@H](N)Cc1ccc(O)cc1)C(=O)N[C@@H](CC(C)C)C(=O)N1CCC[C@H]1C(=O)N[C@@H](CCCNC(=N)N)C(=O)NCC(=O)N[C@@H](CO)C(=O)O [P110] (H-YGRKKRRQRRRGGDLLPRGS-OH)
- death in WT mice: no death
